≈ marks a conversion by molar mass, not a printed value.
Experiments:
Format in all cases: cell-based
[1] = tested on: M. tuberculosis H37R; experiment: M. tuberculosis LORA MIC; settings: Mycobacterium tuberculosis, read-out: M. tuberculosis H37R LORA (MIC) (ug/mL)
[2] = tested on: Vero Cell; experiment: Vero cell cytotoxicity; settings: Chlorocebus sabaeus, Vero cells
[3] = tested on: Mycobacterium tuberculosis H37Rv strain; experiment: In vitro MIC against M. tuberculosis H37Rv strain (MABA, Alamar Blue)
Experimental: Part I: The in vitro efficacy of anti-Mycobacterium tuberculosis compounds was tested using H37Rv strain.
On the day of the test, the compound was dissolved in pure DMSO (Sigma 276855-2L) to a concentration of 10 mg/mL which was used as the mother liquor of the compound. 30 μL of DMSO was added to wells of column 2 to 11 s of the v-bottom 96-well plates (Axygen-wipp02280). 30 μL of the mother liquor of the compound was added to the well of column 2, after mixing, 30 μL was taken from the well of column 2 and added to the well of column 3, and then pipetted and mixed. The operation was taken to column 10. Column 11 was free of medicine and contained only 30 μL of DMSO. This was the “motherplate” of the compound. From column 2 to 11, the corresponding concentration of the compound was 5, 2.5, 1.25, 0.625, 0.3125, 0.156, 0.078, 0.039, 0.02, 0 mg/mL. […] A flat bottom 96-well plate (Greiner 655090) was used as a “daughterplate”. 98 μL of 7H9 (Sigma M0178) medium was added to the wells of all daughterplates. 2 μL of compound was extracted from the motherboard and added to the corresponding daughter plate. Line A and H, column 1 and 12 of the daughterplate contained only 7H9 medium.
The H37Rv strain in the glycerol cryovial was inoculated into 7H9 medium containing 0.05% Tween 80 and cultured for 4 weeks at 37° C. in a shaker with 200 rpm. The bacterial liquid was washed twice with 7H9 medium containing 0.05% Tween 80 and resuspended in the same medium. The absorbance of the bacteria liquid was adjusted to OD550=0.4-0.5 using the same medium. The bacteria liquid was sub-packed in microcentrifuge tubes and stored at −80° C. Storage time was no more than 1 month. On the day of the test, the packaged bacteria liquid would be […]. The bacteria liquid was diluted 20 times and then diluted 50 times with 7H9 medium, and a total of 1000 times dilution. The bacteria liquid would be used to inoculate on the daughterplate. 100 μL of bacterial liquid was inoculated in each well of the daughterboard, 100 μL 7H9 medium was added to column 12 and without bacteria liquid.
The test daughterplate was placed in an incubator at 37° C. and the humidity was maintained at >80%. A week later, 12.5 μL of 7H9 medium containing 20% Tween 80 and 20 μL of Alamar Blue (Invitrogen DAL1100) were added to the well of a column 1 containing bacteria and the well of a column 12 without bacteria every day, and then continue to incubate for 24 hours and observed. When the added Alamar Blue was reduced to pink in 24 hours by the bacteria liquid in the well of column 1, the 7H9 medium containing 20% Tween 80 and Alamar Blue were added to all wells on the test plate and the fluorescence values were measured after incubation for 24 hours at 37° C.

[4] = tested on: Mycobacterium bovis BCG strain TMC1019 (ATCC35737); experiment: microbe, parasite or virus in culture; settings: Mycobacterium tuberculosis variant bovis BCG, 24 h, read-out: M. bovis ATCC35737 (ug/mL)

Structure (SMILES)	MIC [1]	IC50 [2]	MIC [3]	MIC [4]
C[C@]1(CN2CCc3nc(-c4ccccc4F)ccc3C2)Cn2cc([N+](=O)[O-])nc2O1 [Compound 5, (S)-2-((2-(2-Fluorophenyl)-7,8-dihydro-1,6-naphthyridin-6(5H)-yl)methyl)-2-methyl-6-nitro-2,3-dihydroimidazo[2,1-b]oxazole]	1 to 32 µg/mL (≈ 2.44 to 78.2 µM)	> 32 µg/mL	< 1 µg/mL	< 1 µg/mL
C[C@]1(CN2CCc3nc(-c4cccc(F)c4)ccc3C2)Cn2cc([N+](=O)[O-])nc2O1 [Compound 6, (S)-2-((2-(3-Fluorophenyl)-7,8-dihydro-1,6-naphthyridin-6(5H)-yl)methyl)-2-methyl-6-nitro-2,3-dihydroimidazo[2,1-b]oxazole]	1 to 32 µg/mL (≈ 2.44 to 78.2 µM)	> 32 µg/mL	< 1 µg/mL	< 1 µg/mL
C[C@]1(CN2CCc3nc(-c4ccc(C(F)(F)F)cc4)ccc3C2)Cn2cc([N+](=O)[O-])nc2O1 [Compound 10, (S)-2-Methyl-6-nitro-2-((2-(4-(trifluoromethyl)phenyl)-7,8-dihydro-1,6-naphthyridin-6(5H)-yl)methyl)-2,3-dihydroimidazo[2,1-b]oxazole]		> 32 µg/mL	< 1 µg/mL	< 1 µg/mL
C[C@]1(CN2CCc3nc(-c4ccc(F)c(F)c4)ccc3C2)Cn2cc([N+](=O)[O-])nc2O1 [Compound 12, (S)-2-((2-(3,4-Difluorophenyl)-7,8-dihydro-1,6-naphthyridin-6(5H)-yl)methyl)-2-methyl-6-nitro-2,3-dihydroimidazo[2,1-b]oxazole]	1 to 32 µg/mL (≈ 2.34 to 74.9 µM)	> 32 µg/mL	< 1 µg/mL	< 1 µg/mL
C[C@]1(CN2CCc3nc(-c4ccc(F)cc4F)ccc3C2)Cn2cc([N+](=O)[O-])nc2O1 [Compound 13, (S)-2-((2-(2,4-Difluorophenyl)-7,8-dihydro-1,6-naphthyridin-6(5H)-yl)methyl)-2-methyl-6-nitro-2,3-dihydroimidazo[2,1-b]oxazole]	1 to 32 µg/mL (≈ 2.34 to 74.9 µM)	> 32 µg/mL	< 1 µg/mL	< 1 µg/mL
C[C@]1(CN2CCc3nc(-c4cc(F)cc(F)c4)ccc3C2)Cn2cc([N+](=O)[O-])nc2O1 [Compound 14, (S)-2-((2-(3,5-Difluorophenyl)-7,8-dihydro-1,6-naphthyridin-6(5H)-yl)methyl)-2-methyl-6-nitro-2,3-dihydroimidazo[2,1-b]oxazole]	1 to 32 µg/mL (≈ 2.34 to 74.9 µM)	> 32 µg/mL	< 1 µg/mL	< 1 µg/mL
C[C@]1(CN2CCc3nc(-c4ccc(Cl)c(F)c4)ccc3C2)Cn2cc([N+](=O)[O-])nc2O1 [Compound 20, (S)-2-((2-(4-Chloro-3-fluorophenyl)-7,8-dihydro-1,6-naphthyridin-6(5H)-yl)methyl)-2-methyl-6-nitro-2,3-dihydroimidazo[2,1-b]oxazole]	1 to 32 µg/mL (≈ 2.25 to 72.1 µM)	> 32 µg/mL	< 1 µg/mL	< 1 µg/mL
C[C@]1(CN2CCc3nc(-c4ccco4)ccc3C2)Cn2cc([N+](=O)[O-])nc2O1 [Compound 25, (S)-2-((2-(Furan-2-yl)-7,8-dihydro-1,6-naphthyridin-6(5H)-yl)methyl)-2-methyl-6-nitro-2,3-dihydroimidazo[2,1-b]oxazole]	1 to 32 µg/mL (≈ 2.62 to 83.9 µM)	> 32 µg/mL	< 1 µg/mL	< 1 µg/mL
C[C@]1(CN2CCc3nc(-c4ccc(F)cc4)oc3C2)Cn2cc([N+](=O)[O-])nc2O1 [Compound 61, (S)-2-(4-Fluorophenyl)-5-((2-methyl-6-nitro-2,3-dihydroimidazo[2,1-b]oxazol-2-yl)methyl)-4,5,6,7-tetrahydrooxazolo[5,4-c]pyridine]	1 to 32 µg/mL (≈ 2.5 to 80.1 µM)	> 32 µg/mL	< 1 µg/mL	< 1 µg/mL
C[C@]1(CN2CCc3sc(-c4ccc(F)cc4)nc3C2)Cn2cc([N+](=O)[O-])nc2O1 [Compound 67, (S)-2-((2-(4-Fluorophenyl)-6,7-dihydrothiazolo[4,5-c]pyridin-5(4H)-yl)methyl)-2-methyl-6-nitro-2,3-dihydroimidazo[2,1-b]oxazole]		> 32 µg/mL	< 1 µg/mL	< 1 µg/mL
C[C@]1(CN2Cc3nc(-c4cccc(F)c4)sc3C2)Cn2cc([N+](=O)[O-])nc2O1 [Compound 70, (S)-2-((2-(3-Fluorophenyl)-4H-pyrrolo[3,4-d]thiazol-5(6H)-yl)methyl)-2-methyl-6-nitro-2,3-dihydroimidazo[2,1-b]oxazole]		> 32 µg/mL	< 1 µg/mL	< 1 µg/mL
C[C@]1(CN2Cc3nc(-c4ccc(F)c(F)c4)sc3C2)Cn2cc([N+](=O)[O-])nc2O1 [Compound 71, (S)-2-((2-(3,4-Difluorophenyl)-4H-pyrrolo[3,4-d]thiazol-5(6H)-yl)methyl)-2-methyl-6-nitro-2,3-dihydroimidazo[2,1-b]oxazole]		> 32 µg/mL	< 1 µg/mL	< 1 µg/mL
C[C@]1(CN2Cc3nc(-c4ccc(F)cc4Cl)sc3C2)Cn2cc([N+](=O)[O-])nc2O1 [Compound 77, (S)-2-((2-(2-chloro-4-fluorophenyl)-4H-pyrrolo[3,4-d]thiazol-5(6H)-yl)methyl)-2-methyl-6-nitro-2,3-dihydroimidazo[2,1-b]oxazole]		> 32 µg/mL	< 1 µg/mL	< 1 µg/mL
C[C@]1(CN2Cc3nc(-c4ccc(F)cc4F)sc3C2)Cn2cc([N+](=O)[O-])nc2O1 [Compound 78, (S)-2-((2-(2,4-Difluorophenyl)-4H-pyrrolo[3,4-d]thiazol-5(6H)-yl)methyl)-2-methyl-6-nitro-2,3-dihydroimidazo[2,1-b]oxazole]		> 32 µg/mL	< 1 µg/mL	< 1 µg/mL
CN(c1ccc(F)cc1)c1nc2c(s1)CN(C[C@@]1(C)Cn3cc([N+](=O)[O-])nc3O1)C2 [Compound 85, (S)—N-(4-Fluorophenyl)-N-methyl-5-((2-methyl-6-nitro-2,3-dihydroimidazo[2,1-b]oxazol-2-yl)methyl)-5,6-dihydro-4H-pyrrolo[3,4-d]thiazol-2-amine]		> 32 µg/mL	< 1 µg/mL	< 1 µg/mL
C[C@]1(CN2CCCc3nc(-c4ccc(F)cc4)ccc3C2)Cn2cc([N+](=O)[O-])nc2O1 [Compound 96, (S)-2-((2-(4-Fluorophenyl)-8,9-dihydro-5H-pyrido[3,2-c]azepin-6(7H)-yl)methyl)-2-methyl-6-nitro-2,3-dihydroimidazo[2,1-b]oxazole]	1 to 32 µg/mL (≈ 2.36 to 75.6 µM)	> 32 µg/mL	< 1 µg/mL	< 1 µg/mL

— patent publication US10227362B2 (priority 2015, dated 2019)
